From publication PMC8018184, “Evaluation of the Pharmacophoric Role of the O–O Bond in Synthetic Antileishmanial Compounds: Comparison between 1,2-Dioxanes and Tetrahydropyrans” (Journal of Medicinal Chemistry, 2020)
Where two headings read alike, the source gives them in different places.

Experiments:
[1] = tested on: L. donovani promastigotes (MHOM/NP/02/BPK282/0cl4); test: Promastigote growth inhibition assay (alamarBlue); type: cell-based, Leishmania donovani; conditions: for IC50: Leishmania donovani; for Selectivity index (SI) = CC50/IC50: Vero CC50 / IC50 on promastigotes; for Activity against promastigotes under the bioassay conditions: 40 μM compound
Experimental: The bioactivity of the new tetrahydropyrans 3 was initially evaluated against the extracellular promastigote forms of L. donovani (MHOM/NP/02/BPK282/0cl4) as the reference strain, indicative of the leishmaniasis in the Old World. The results were expressed as IC50, i.e., the concentration of the product required to inhibit the parasite growth by 50%. When a compound could inhibit the promastigote growth, its cytotoxicity was also evaluated on Vero cells (Table 1) and on THP-1 cells (see the Supporting Information, Table S3) and the corresponding selectivity indexes (SIs) were calculated. The performance of each tetrahydropyran 3 was compared with that of the corresponding endoperoxide 2 (Table 1).
Promastigotes of a L. donovani reference strain (MHOM/NP/02/BPK282/0cl4) were maintained at 26 °C in a liquid custom-made medium, HOMEM Cat. no: 1140-082 (Gibco Thermo Fisher Scientific Inc., Waltham, USA), complete composition: S-MEM (Eagle) 1 × 1 liter pack, glucose (1–2 g), sodium bicarbonate (0.3 g), sodium pyruvate (0.11 g), p-aminobenzoic acid (1 mg), biotin (0.1 mg), HEPES (4.77–5.96 g), MEM amino acids (10 mL), MEM nonessential amino acids (10 mL), pH 7.5–7.6, supplemented with 20% fetal bovine serum (FBS, EuroClone SpA, Milan, Italy)[123] and 1% penicillin–streptomycin (EuroClone SpA).
To evaluate the efficacy of the compounds on the extracellular forms of L. donovani, promastigotes in their late log/stationary phase were seeded with the complete HOMEM medium at 10^6 cells mL^–1 in 96-well plates and incubated with tested compounds at a range concentration of 600–1.6 μM in a 26 °C incubator for 72 h. The antileishmanial drug amphotericin B was used as the positive control, and untreated promastigotes were the negative control. Each experiment was performed in duplicate. Stock solution of the compounds was 8 mM in DMSO. […] The alamarBlue assay includes a colorimetric growth indicator based on detection of metabolic activity. Specifically, the system incorporates an oxidation–reduction (REDOX) indicator that changes color in response to chemical reduction of the growth medium resulting from cell growth. The method monitors the reducing environment of proliferating cells; the cell-permeable resazurin is added (nonfluorescent form, blue color) and, upon entering cells, is reduced to resorufin (fluorescent form, red color) as a result of cellular metabolic activity. Evaluation was performed by adding 20 μL of alamarBlue and incubating at 26 °C for 24 h. The reducing environment was evaluated after 24 h by absorbance measurement at the Multiskan ascent plate reader (Thermo Fisher Scientific Inc.) at 550 and 630 nm.

[2] = Cytotoxicity test on Vero cells (alamarBlue); type: cell-based, African green monkey
Experimental: (§1) Vero cells (kidney of African green monkey epithelial cell line) were cultured at 37 °C in the MEM liquid medium supplemented with 10% FBS (EuroClone SpA), 1% levoglutamine (EuroClone SpA), and 1% penicillin–streptomycin (EuroClone SpA). THP-1 cells (human leukemia monocytic cell line) were cultured at 37 °C in the RPMI 1640 (EuroClone SpA) liquid medium supplemented with 10% FBS (EuroClone SpA), 1% levoglutamine (EuroClone SpA), 1% penicillin–streptomycin, and mercaptoethanol (Gibco) 50 μM.
(§2) The cytotoxicity of the compounds was determined using mammalian kidney epithelial cells (Vero cell line) and human acute monocytic leukemia cell line (THP-1). Cells were seeded (10^5 cells mL^–1) on 96-well plates with the complete MEM medium and incubated with test compounds at 37 °C in a 5% CO2 incubator. After 72 h of incubation, 20 μL of the alamarBlue reagent was added to each well and incubated at 37 °C for 24 h. Reduction of resazurin to resorufin was evaluated after 24 h by absorbance measurement at the Multiskan ascent plate reader (Thermo Fisher Scientific Inc.,) at 550 and 630 nm. […] Each experiment was performed in duplicate.

[3] = tested on: intramacrophage amastigotes of L. donovani; test: Amastigote growth inhibition assay in infected THP-1 cells (Giemsa, infectivity index); type: cell-based, Leishmania donovani; conditions: for IC50: Leishmania donovani, intracellular amastigotes in THP-1, 72 h, read-out: IC50 against amastigotes of L. donovani
Experimental: To evaluate the efficacy of the compounds on the intracellular form of L. donovani, human acute monocytic leukemia cell line (THP-1) was infected with L. donovani promastigotes. Cells were harvested and seeded in a 96-well plate (10^5 cells mL^–1) in the complete RPMI 1640 medium, and PMA (0.1 μM, Cayman Chemical Company, Ann Arbor, Michigan, USA) was added for obtaining maturation and cell adherence. Cells were incubated at 37 °C in a 5% CO2 incubator. After 48 h, the medium was replaced with the fresh medium containing stationary-phase promastigotes that were then phagocyted by monocytic cells and transformed into intracellular amastigotes. After 24 h of incubation, newly synthesized compounds were added and the plates were incubated at 37 °C in a 5% CO2 incubator for 72 h. After incubation, wells were washed, fixed, and stained with Giemsa. Staining was detected using a Nikon Eclipse E200 light microscope (Nikon, Tokyo, Japan). The infectivity index (% of infected macrophages × average number of amastigotes per macrophage) was determined by counting at least 100 cells in duplicate cultures.

[4] = Cytotoxicity test on THP-1 cells (alamarBlue); type: cell-based; conditions: human, THP-1 cells (acute monocytic leukemia cell line); CSV supplement; read-out: CC50 against human acute monocytic leukemia cell line (THP-1)
Experimental: as §1, §2
Cytotoxicity in THP-1 cell line
We performed additional cytotoxicity tests employing THP-1 cell line. We also calculated the
corresponding selectivity indexes, as the ratio between CC50 of THP-1 cell line and IC50 on amastigotes
THP-1 cells than on VERO cells; thus showing a not significant variance of selectivity index.
Table S3. Inhibitory activity of tetrahydropyrans 3 and endoperoxides 2 against amastigotes of L.
donovani, cytotoxicity in human acute monocytic leukemia cell line (THP-1) and selectivity index (SI).
Tetrahydropyran IC50 CC50 Endoperoxide IC50 CC50
a (µM)b (µM)c a (µM)b (µM)c
a Compounds tested as racemates. b IC50 represents the concentration of a compound that causes 50% growth inhibition.
Results represent the mean (± standard deviation, SD) of three independent experiments performed in duplicate. c CC50
represents 50% cytotoxic concentration on THP-1 cells. d Selectivity index (SI) = CC50/IC50. […]

[5] = tested on: L. donovani promastigotes; test: Promastigote growth inhibition in the presence of an iron chelator (DFO or DFP), isobologram; type: cell-based, Leishmania donovani; conditions: for Interaction with the iron chelator DFO (isobologram, ΣFIC): synergism <0.5, antagonism >4.0, else additivity
Experimental: At first, we determined IC50 and CC50 values of the iron chelator DFO (187 and >400 μM, respectively). Then, the effect of the iron chelator presence on the bioactivity of the two compounds was studied by coincubating 2a and 3a with DFO at different concentrations. The variation of IC50 of the compounds in relation to the different doses of DFO was determined by the alamarBlue assay (Table 3), and the isobole technique was employed to depict the interactions of 2a and 3a with DFO (Figure 6).
The isobole technique was used for depicting synergistic or antagonistic interaction between the iron chelator and the two compounds on the parasite growth (Figure 6). Combinations are expressed as the sum of the fractional inhibitory concentrations (ΣFIC), and FIC values are defined as synergism (<0.5), antagonism (>4.0), and additivity (no interaction). The strength of synergism (or antagonism) is indicated by the degree of deviation from the line of additivity.
[…]. Each compound was added using a concentration range including the IC50 of each compound. Each experiment was performed in duplicate. The viability of the parasites was determined by the alamarBlue assay. The fractional inhibitory concentration (FIC; FIC = IC50 of the drug in the combination/IC50 of the drug when tested alone) of each compound was calculated and plotted as an isobologram.

[6] = tested on: L. donovani promastigotes (MHOM/NP/02/BPK282/0cl4); test: Promastigote growth inhibition assay (alamarBlue); type: cell-based; conditions: Leishmania donovani, HOMEM with 10% FBS
[7] = tested on: promastigotes of Leishmania donovani strains; design: method as in earlier work; conditions: Figure 1; read-out: IC50 on promastigotes of L. donovani strains; cited from earlier work
[8] = 72 h, alamarBlue, HOMEM 20% FBS, compounds as racemates, read-out: IC50 (concentration causing 50% growth inhibition) against promastigotes of L. donovani
[9] = chlorocebus sabaeus, Vero cells (kidney epithelial cell line), 72 h, alamarBlue, read-out: CC50 (50% cytotoxic concentration) on Vero cells
[10] = THP-1 CC50 / IC50 on amastigotes
[11] = Vero CC50 / IC50 on amastigotes

IC50 [3] | Structure (SMILES) | IC50 [1, 8] | Selectivity index (SI) = CC50/IC50 [1] | CC50 at 72 h [2, 9] | Selectivity index (SI) = CC50/IC50 [3, 10] | Selectivity index (SI) = CC50/IC50 [3, 11] | CC50 at 72 h [4] | other results
3.2 ± 0.9 µM | CO[C@]1(C)OCC(c2ccccc2)(c2ccccc2)C[C@@H]1CNCCCn1ccnc1 (racemic) [3b, 3-(1H-Imidazol-1-yl)-N-((2-methoxy-2-methyl-5,5-diphenyltetrahydro-2H-pyran-3-yl)methyl)propan-1-amine] | 5.8 ± 0.9 µM | 7.3 | 42.3 ± 3.2 µM | 15.6 | 13.2 | 50 µM | Interaction with the iron chelator DFO (isobologram, ΣFIC) [5]: additive effects; IC50 [6]: 3.2 µM
– | CO[C@]1(C)OCC(C)(C)C[C@@H]1CNCCCn1ccnc1 (racemic) [3c, 3-(1H-Imidazol-1-yl)-N-((2-methoxy-2,5,5-trimethyltetrahydro-2H-pyran-3-yl)methyl)propan-1-amine] | > 40 µM | – | – | – | – | – | Activity against promastigotes under the bioassay conditions [1]: inactive
2.8 ± 0.7 µM | CO[C@]1(C)OCC(c2ccccc2)(c2ccccc2)C[C@@H]1COCc1cn(CCC[P+](c2ccccc2)(c2ccccc2)c2ccccc2)nn1.[Br-] (racemic) [3d, (3-(4-(((2-Methoxy-2-methyl-5,5-diphenyltetrahydro-2H-pyran-3-yl)methoxy)methyl)-1H-1,2,3-triazol-1-yl)propyl)triphenylphosphonium bromide] | 18 ± 3 µM | 5.1 | 92 ± 8.7 µM | 22.9 | 32.8 | 64.1 µM | –
– | CCCCC1(CCCC)CO[C@@](C)(OC)[C@@H](CNCCCCNc2c3ccc(Cl)cc3nc3ccc(OC)cc23)C1 (racemic) [3e, N^1-(6-Chloro-2-methoxyacridin-9-yl)-N^4-((5,5-dibutyl-2-methoxy-2-methyltetrahydro-2H-pyran-3-yl)methyl)butane-1,4-diamine] | 0.9 µM | 1.3 | 1.2 µM | – | – | – | –
– | CO[C@]1(C)OOC(C)(C)C[C@@H]1CNCCCn1ccnc1 [2c] | > 40 µM | – | – | – | – | – | Activity against promastigotes under the bioassay conditions [1]: inactive
– | CCCCC1(CCCC)C[C@H](CNCCCCNc2c3ccc(Cl)cc3nc3ccc(OC)cc23)[C@](C)(OC)OO1 [2e, N^1-(6-Chloro-2-methoxyacridin-9-yl)-N^4-((6,6-dibutyl-3-methoxy-3-methyl-1,2-dioxan-4-yl)methyl)butane-1,4-diamine] | 0.5 µM | 2.6 | 1.3 µM | – | – | – | –
– | CCCCC1(CCCC)C[C@H](CNCCCCNc2ccc([N+](=O)[O-])c3nonc23)[C@](C)(OC)OO1 [2f, N^1-((6,6-Dibutyl-3-methoxy-3-methyl-1,2-dioxan-4-yl)methyl)-N^4-(7-nitrobenzo[c][1,2,5]oxadiazol-4-yl)butane-1,4-diamine] | 11.4 µM | 1.1 | 12.1 µM | – | – | – | –
> 40 µM | C[C@H]1[C@H](OC(=O)CCC(=O)O)O[C@@H]2O[C@@]3(C)CC[C@H]4[C@H](C)CC[C@@H]1[C@@]24OO3 [Artesunate, reference compound] | > 40 µM | – | – | – | – | – | –
– | CC(=O)N(O)CCCCCNC(=O)CCC(=O)N(O)CCCCCNC(=O)CCC(=O)N(O)CCCCCN [DFO, desferrioxamine, reference compound] | – | – | – | – | – | – | IC50 ([1]; 72 h, read-out: IC50 (concentration causing 50% growth inhibition) against promastigotes of L. donovani): 187 µM; CC50 at 72 h ([2]; cell line not given, read-out: CC50 of the iron chelator): > 400 µM
– | Cc1c(O)c(=O)ccn1C [DFP, deferiprone, reference compound] | – | – | – | – | – | – | IC50 ([1]; read-out: IC50 of the iron chelator DFP): 219 µM; CC50 at 72 h ([2]; cell line not given, read-out: CC50 of the iron chelator DFP): 143 µM
– | CCCCCCCCCCCCCCCCOP(=O)([O-])OCC[N+](C)(C)C [Miltefosine] | – | – | – | – | – | – | IC50 [7]: 1.9 to 68.1 µM

Structure (SMILES) | IC50 [3] | IC50 [1, 8] | Selectivity index (SI) = CC50/IC50 [1] | CC50 at 72 h [2, 9] | Selectivity index (SI) = CC50/IC50 [3, 10] | Selectivity index (SI) = CC50/IC50 [3, 11] | CC50 at 72 h [4] | other results
CO[C@]1(C)OOC(c2ccccc2)(c2ccccc2)C[C@@H]1CNCCCn1ccnc1 [2b] | 5 ± 1 µM | 6.3 ± 1.1 µM | 7.7 | 49 ± 2.7 µM | 10.5 | 9.8 | 52.5 µM | IC50 ([5]; Leishmania donovani, no DFO, read-out: IC50 against promastigotes, absence of DFO (Table S4)): 7.5 µM; Interaction with the iron chelator DFO (isobologram, ΣFIC) [5]: additive effects; IC50 [6]: 1.2 µM
Br.CO[C@]1(C)OOC(c2ccccc2)(c2ccccc2)C[C@@H]1COCc1cn(CCC[P+](c2ccccc2)(c2ccccc2)c2ccccc2)nn1 [2d] | 16.5 ± 1.5 µM | 13.8 ± 2.2 µM | 17.3 | 238 ± 36.8 µM | 8.6 | 14.4 | 142 µM | –
